Measured values taken from US6682914B2, “Bioactive tetracyclic diterpene compounds and methods of preparation and use thereof” (Universidad del Pais Vasco/Euskal Herriko Unibersitatea, priority 2001, dated 2004).

System: Aspergillus nidulans
Assay: Conidiation-inducing bioassay modified for Aspergillus (conidiophores per mycelial pellet)
Type: cell-based
Conditions: control at least 28 hours
Protocol: Assays were carried out in shaken flask cultures using 25 mL. […] Determination of conidiation inducing activity was followed by microscopic observation of mycelium samples taken at different times. For these purposes, conidiation time was defined as the time at which 50% of the hyphal tips attained the final stage of conidiation (conidia-bearing tips), according to previously established criteria (Ugalde and Pitt, 1983), namely, the direct microscopic observation of three separate groups of 500 hyphal tips, and the determination of the proportion of hyphal tips in each group which bear conidia.
The bioassay procedure described above was used to assess qualitatively in other filamentous fungi, in particular, those of the genus Aspergillus, the conidiation-inducing activity of the compounds that were extracted, isolated and purified from Penicillium cyclopium in accordance with Example 1. […] Thus, the criteria employed to determine the time of conidiation in these cases was the appearance of at least two conidiophores (the specific phialide bearing structure for this genus) on average per mycellial pellet, measured from a minimum of 10 pellets.

Compound | time of incubation to positive conidiogenic activity (at least two conidiophores per mycelial pellet) (100 ng/mL in culture medium) [h] | time of incubation to positive conidiogenic activity (at least two conidiophores per mycelial pellet) (25-50 ng/mL in culture medium) [h]
CC1C(O)CC(O)C2(C)CCC3C4C(C)(C)CCC4(C)CC132 (stereo not drawn) [conidiogenol, (1R*, 3R*, 7R*, 8S*, 11R*, 12R*, 14S*, 15R*)-3,6,6,11,15-pentamethyl-tetracyclo[9.4.0.0^1,8.0^3,7]-pentadecan-12,14-diol] | 22 | 
CC1C(O)CC(=O)C2(C)CCC3C4C(C)(C)CCC4(C)CC132 (stereo not drawn) [conidiogenone, (1R*, 3R*, 7R*, 8S*, 11R*, 14S*, 15R*)-14-Hydroxy-3,6,6,11,15pentamethyl-tetracyclo[9.4.0.0^1,8.0^3,7]-pentadecan-12-one] |  | 22
